Patent publication US9018203B2, “Pharmaceutical composition of salicylanilide-derived small molecules and preparation and application thereof” (National Defense Medical Center, priority 2012, dated 2015)

Assays:
RAW 264.7 cells [1] = experiment: MTT cell viability assay in RAW 264.7 cells; type: cell-based, murine; details: 24 hr; for Cell viability: Survival rate at 10 μM (%): 10 μM compound; for CC50: read-out: Cell viability: CC50 (cytotoxic concentration that produces 50% cell survival)
Method: (§1) Cell viability was measured by MTT assay in RAW 264.7 cells upon treatment with 10 μM compounds for 24 hr. CC50 (the cytotoxic concentration that produces 50% cell survival) were identified in this example.

[2] = MTT cell viability assay in RAW 264.7 cells; type: cell-based, murine; details: mouse; for CC50 at 24 hr: read-out: Cell viability: CC50 (cytotoxic concentration that produces 50% cell survival); for viability at 24 hr, 10 µM: 10 μM compound, read-out: Cell viability: Survival rate at 10 μM (%)
Method: as §1

RAW 264.7 cells [3] = experiment: TRAP staining and activity assay of RANKL-induced osteoclastogenesis; type: cell-based, murine; details: 10 μM compound; for Osteoclastogenesis: TRAP+ MNCS at 10 μM (%): 100 ng/mL RANKL, 5 days, relative to RANKL without drug; for Inhibitory activity on osteoclastogenesis (in words) / Inhibition of osteoclast differentiation, TRAP staining (FIG. 1 C, D, E): RANKL
Method: The murine RAW 264.7 cell was an osteoclast precursor cell. RAW 264.7 cells were cultured in DMEM (Gibco BRL), 10% FBS, Penicillin (100 U/L), Streptomycin (100 U/L), 5% CO2, 37° C. To induce the murine RAW 264.7 cells differentiation, the cells were cultured in 96-well culture dish 10^4 cell per dish with α-MEM, 10% FBS, 2 mM L-glutamate, Penicillin (100 U/L), Streptomycin (100 U/L), with or without 100 ng/mL RANKL for 5 days, and added or not added tested drug, replaced the fresh medium at 3 day. The cells were TRAP^+ stained and analyzed the activity, then washed the cells by PBS and fixed by 3.7% formaldehyde for 30 minutes, then washed by PBS. The cells were reacted in Leukocyte Acid Phosphatase Assay kit (Sigma) at 37° C. for 1 hr, and washed by distilled water for three times and counted the multinucleated cells numbers by microscopy.
After treatment with RANKL and 10 μM compounds in RAW 264.7, the osteoclasts were counted percentage of the TRAP^+ cells (TRAP^+ MNCS %, the denominator was the number of cells which was treated with RANKL but without drug, and the numerator was the number of cells which was treated with RANKL and drug).

RAW 264.7 cells [4] = experiment: Pit formation assay (bone resorption); type: cell-based, murine; details: RANKL, 10 μM compound
Method: In pit formation assay, RAW 264.7 cells were cultured in DMEM (Gibco BRL) 10% FBS, Penicillin (100 U/L), streptomycin (100 U/L), 5% CO2 at 37° C. To induce the murine RAW 264.7 cell differentiation, the cells were cultured in 96-well culture dish 10^4 cell per dish with α-MEM, 10% FBS, 2 mM L-glutamate, Penicillin (100 U/L), Streptomycin (100 U/L), with or without 100 ng/mL RANKL for 5 days in the present or absent tested drug, replaced the fresh medium at 3 day. The 24-well plate were washed by PBS and added in 0.5 mL/well chloride solution, stood at room-temperature for 10 minutes for destroying the cell, then stained with 0.1% Toluidine Blue 0.5 mL/well, and washed by distilled water for three times and photographed under microscopy.

Compound	Cell viability: Survival rate at 10 μM (%) (RAW 264.7 cells [1])	CC50 at 24 hr [2]	Osteoclastogenesis: TRAP+ MNCS at 10 μM (%) (RAW 264.7 cells [3])	Inhibitory activity on osteoclastogenesis (in words) (RAW 264.7 cells [3])	viability at 24 hr, 10 µM [2]	melting point	Bone resorption, erosion of bone slices (FIG. 2 C, D) (RAW 264.7 cells [4])	Inhibition of osteoclast differentiation, TRAP staining (FIG. 1 C, D, E) (RAW 264.7 cells [3])	CC50 (RAW 264.7 cells [1])
COc1ccc(C(=O)O)c(O)c1 [2-hydroxy-4-methoxy-benzoic acid, reference compound]	99.4 ± 7.6%	> 40 µM	79.6 ± 8.3%	did not perform significant inhibitory activity					
O=C(O)c1ccccc1O [Salicylic acid, reference compound]		> 40 µM		did not perform significant inhibitory activity					
O=C(Nc1ccc(Cl)cc1F)c1ccccc1O [compound 1a, N-(4-chloro-2-fluorophenyl)-2-hydroxybenzamide]		21.3 ± 3.4 µM	49.4±5.4%		93 ± 3.1%	184 to 185 °C			
COc1ccccc1C(=O)Nc1ccc(Cl)cc1F [compound 1b, N-(4-chloro-2-fluorophenyl)-2-methoxybenzamide]	101.8 ± 4.5%	> 40 µM	86.0 ± 9.9%			111 to 112 °C			
O=C(Nc1ccc(Cl)cc1F)c1ccccc1OCc1ccc(F)cc1F [compound 1c, N-(4-chloro-2-fluorophenyl)-2-((2,4-difluorobenzyl)oxy)benzamide]	107.2 ± 4.5%	> 40 µM	74.6 ± 6.2%			121 to 122 °C			
O=c1oc2ccccc2c(=O)n1-c1ccc(Cl)cc1F [compound 1d, 3-(4-chloro-2-fluorophenyl)-2H-benzo[e][1,3]oxazine-2,4(3H)-dione]	97.9 ± 2.0%	> 40 µM	3.4±2.1%				the resorption hole was reduced	significant inhibition of differentiation	
COc1ccc(C(=O)Nc2ccc(Cl)cc2F)c(O)c1 [compound 2a, N-(4-chloro-2-fluorophenyl)-2-hydroxy-4-methoxybenzamide]	103.0 ± 2.8%		23.8±3.4%			186 to 187 °C	the resorption hole was reduced	significant inhibition of differentiation	32.3 ± 4.9 µM
COc1ccc(C(=O)Nc2ccc(Cl)cc2F)c(OC)c1 [compound 2b, N-(4-chloro-2-fluorophenyl)-2,4-dimethoxybenzamide]	52.9 ± 2.8%		60.2 ± 3.6%			155 to 156 °C			13.6 ± 1.2 µM
COc1ccc(C(=O)Nc2ccc(Cl)cc2F)c(OCc2ccc(F)cc2F)c1 [compound 2c, N-(4-chloro-2-fluorophenyl)-2-((2,4-difluorobenzyl)oxy)-4-methoxybenzamide]	107.3 ± 4.4%	> 40 µM	68.7 ± 4.6%			134 to 135 °C			
COc1ccc2c(=O)n(-c3ccc(Cl)cc3F)c(=O)oc2c1 [compound 2d, 3-(4-chloro-2-fluorophenyl)-7-methoxy-2H-benzo[e][1,3]oxazine-2,4(3H)-dione]	100.5 ± 2.4%	> 40 µM	36.0±1.8%			203 to 204 °C		significant inhibition of differentiation	
O=C(Nc1ccc(F)cc1F)c1ccccc1O [compound 3a, N-(2,4-difluorophenyl)-2-hydroxybenzamide]		> 40 µM	85.9 ± 6.2%		104 ± 3.6%	186 to 187 °C			
COc1ccccc1C(=O)Nc1ccc(F)cc1F [compound 3b, N-(2,4-difluorophenyl)-2-methoxybenzamide]	108.5 ± 4.0%	> 40 µM	89.1 ± 5.1%			86 to 87 °C			
O=C(Nc1ccc(F)cc1F)c1ccccc1OCc1ccc(F)cc1F [compound 3c, 2-((2,4-difluorobenzyl)oxy)-N-(2,4-difluorophenyl)benzamide]	101.1 ± 3.2%	> 40 µM	97.6 ± 6.0%			135 to 136 °C			
O=c1oc2ccccc2c(=O)n1-c1ccc(F)cc1F [compound 3d, 3-(2,4-difluorophenyl)-2H-benzo[e][1,3]oxazine-2,4(3H)-dione]		> 40 µM	69.8 ± 7.7%		105 ± 6.3%	182 to 183 °C			
COc1ccc(C(=O)Nc2ccc(F)cc2F)c(O)c1 [compound 4a, N-(2,4-difluorophenyl)-2-hydroxy-4-methoxybenzamide]		> 40 µM	41.3±8.6%		105 ± 4.7%	180 to 181 °C			
COc1ccc(C(=O)Nc2ccc(F)cc2F)c(OC)c1 [compound 4b, N-(2,4-difluorophenyl)-2,4-dimethoxybenzamide]	102.5 ± 9.3%	> 40 µM	93.0 ± 7.7%			138 to 139 °C			
COc1ccc(C(=O)Nc2ccc(F)cc2F)c(OCc2ccc(F)cc2F)c1 [compound 4c, 2-((2,4-difluorobenzyl)oxy)-N-(2,4-difluorophenyl)-4-methoxybenzamide]	106.0 ± 8.8%	> 40 µM	66.2 ± 8.1%			131 to 132 °C			
COc1ccc2c(=O)n(-c3ccc(F)cc3F)c(=O)oc2c1 [compound 4d, 3-(2,4-difluorophenyl)-7-methoxy-2H-benzo[e][1,3]oxazine-2,4(3H)-dione]		> 40 µM	87.9 ± 9.1%		102 ± 9.1%	138 to 139 °C			
